In patent US7307095B2, “Inhibitors of cathepsin S” (IRM LLC, priority 2003, dated 2007):

What was measured:
Type in all cases: biochemical
[1] = target: Cathepsin S (Homo sapiens, UniProt P25774); assay: Cathepsin S inhibition, fluorogenic peptide substrate kinetic assay; conditions: Cathepsin S inhibition constant; read-out: Ki Cat. S
Method: (§1) The optimal substrate for cathepsin S, acetyl-histidine-proline-valine-lysine-amino carbamoyl coumarin, was identified from screening a combinatorial library of fluorogenic peptide substrates (Harris, J. L., B. J. Backes, et al. Proc Natl Acad Sci USA 2000, 97(14), 7754-9). Kinetic measurements are performed in a total reaction volume of 30 μl in 384-well microtiter plates. […] Control reactions in the absence of inhibitor are performed in replicates of 24. The reactions are initiated by adding the substrate, acetyl-histidine-proline-valine-lysine-amino carbamoyl coumarin, to a final concentration of 50 μM. The rate of substrate hydrolysis is measured by monitoring the increase in fluorescence at an excitation wavelength of 380 nm and an emission wavelength of 450 nm that results from cleavage of the aniline bond in the substrate by the enzyme. The apparent inhibition constants for the compounds are determined from the enzyme progress curves (Kuzmic, P., K. C. Elrod, et al. Anal Biochem 2000, 286(1), 45-50) and are then used to calculate the inhibition constants for competitive inhibitors.

[2] = target: Cathepsin L (Homo sapiens, UniProt P07711); assay: Cathepsin L inhibition, fluorogenic peptide substrate kinetic assay (selectivity ratio vs cathepsin S); conditions: ratio of cathepsin L inhibition constant to cathepsin S inhibition constant
Chain of Cathepsin L (P07711 114-333, species assumed): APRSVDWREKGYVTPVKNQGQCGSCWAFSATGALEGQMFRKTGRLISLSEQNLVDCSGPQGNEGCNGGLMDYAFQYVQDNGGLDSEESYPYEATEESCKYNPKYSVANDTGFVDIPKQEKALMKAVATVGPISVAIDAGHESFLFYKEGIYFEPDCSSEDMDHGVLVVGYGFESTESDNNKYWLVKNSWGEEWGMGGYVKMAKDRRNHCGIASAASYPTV
Method: as §1, with “cathepsin L, acetyl-histidine-lysine-phenylalanine-lysine-amino” for “cathepsin S, acetyl-histidine-proline-valine-lysine-amino”, “substrate, acetyl-histidine-lysine-phenylalanine-lysine-amino” for “substrate, acetyl-histidine-proline-valine-lysine-amino”, “of 20” for “of 50”, “curves ([…].” for “curves (Kuzmic, P., K. C.”, “inhibitors. Selectivity for cathepsin S in the presence of cathepsin isozymes was determined by the ratio of the cathepsin isozyme inhibition constant of a compound of the present invention to the cathepsin S inhibition constant of the same compound.” for “inhibitors.”

[3] = target: Cathepsin B (Homo sapiens, UniProt P07858); assay: Cathepsin B inhibition, fluorogenic peptide substrate kinetic assay (selectivity ratio vs cathepsin S); conditions: ratio of cathepsin B inhibition constant to cathepsin S inhibition constant
Method: (§2) Kinetic measurements are performed in a total reaction volume of 30 μl in 384-well microtiter plates. […] Control reactions in the absence of inhibitor are performed in replicates of 24. The reactions are initiated by adding the substrate, acetyl-histidine-proline-valine-lysine-amino carbamoyl coumarin, to a final concentration of 10 μM. The rate of substrate hydrolysis is measured by monitoring the increase in fluorescence at an excitation wavelength of 380 nm and an emission wavelength of 450 nm that results from cleavage of the aniline bond in the substrate by the enzyme. The apparent inhibition constants for the compounds are determined from the enzyme progress curves ([…]. Elrod, et al. Anal Biochem 2000, 286(1), 45-50) and are then used to calculate the inhibition constants for competitive inhibitors. Selectivity for cathepsin S in the presence of cathepsin isozymes was determined by the ratio of the cathepsin isozyme inhibition constant of a compound of the present invention to the cathepsin S inhibition constant of the same compound.

[4] = target: T1, Cathepsin K (Homo sapiens, UniProt P43235); assay: Cathepsin K inhibition, fluorogenic peptide substrate kinetic assay (selectivity ratio vs cathepsin S); conditions: ratio of cathepsin K inhibition constant to cathepsin S inhibition constant
T1 sequence (P43235 115-329): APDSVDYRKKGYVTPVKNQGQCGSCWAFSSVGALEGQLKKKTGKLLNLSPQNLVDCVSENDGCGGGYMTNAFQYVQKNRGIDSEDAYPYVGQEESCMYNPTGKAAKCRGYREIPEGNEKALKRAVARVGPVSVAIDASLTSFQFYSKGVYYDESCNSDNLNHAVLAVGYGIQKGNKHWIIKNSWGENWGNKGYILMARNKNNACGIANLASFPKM
Method: as §2, with “acetyl-lysine-histidine-proline-lysine-amino” for “acetyl-histidine-proline-valine-lysine-amino”, “40” for “10”

Chain of Cathepsin S (P25774 115-331, species assumed): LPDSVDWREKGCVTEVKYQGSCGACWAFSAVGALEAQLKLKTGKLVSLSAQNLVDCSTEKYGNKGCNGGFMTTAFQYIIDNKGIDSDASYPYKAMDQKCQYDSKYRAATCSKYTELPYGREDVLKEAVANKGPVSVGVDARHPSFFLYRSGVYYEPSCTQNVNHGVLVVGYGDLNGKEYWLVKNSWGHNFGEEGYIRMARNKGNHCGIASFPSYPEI

Row | Compound | Ki [1] [nM] | Selectivity for Cat. S over Cat. L [2] | Selectivity for Cat. S over Cat. B [3] | Selectivity for Cat. S over Cat. K [4]
1 | 3-(S)-[2-(S)-(6-Chloro-benzooxazol-2-ylamino)-3-cyclohexyl-propionylamino]-4-(5-fluoro-2,3-dihydro-indol-1-yl)-butyric acid tert-butyl ester [Example 28] | < 1000 | ++ (++, >100) | ++ (++, >100) | ++ (++, >100)
2 | CC(C)(C)C[C@H](Nc1nc2ccccc2o1)C(=O)N[C@@H](CC(=O)OC(C)(C)C)CN1CCc2cc(F)ccc21 [Example 3, 3-(S)-[2-(S)-(Benzooxazol-2-ylamino)-4,4-dimethyl-pentanoylamino]-4-(5-fluoro-2,3-dihydro-indol-1-yl)-butyric acid tert-butyl ester] | < 1000 | ++ (++, >100) | ++ (++, >100) | ++ (++, >100)
3 | CC(C)(C)C[C@H](Nc1nc2ccccc2o1)C(=O)N[C@@H](CC(=O)O)CN1CCc2cc(F)ccc21 [Example 4, 3-(S)-[2-(S)-(Benzooxazol-2-ylamino)-4,4-dimethyl-pentanoylamino]-4-(5-fluoro-2,3-dihydro-indol-1-yl)-butyric acid] | < 100 | +++ (+++, >1000) | +++ (+++, >1000) | ++ (++, >100)
4 | CC(C)(C)C[C@H](Nc1nc2ccccc2o1)C(=O)N[C@@H](CCS(C)(=O)=O)CN1CCc2cc(F)ccc21 [Example 5, 2-(S)-(Benzooxazol-2-ylamino)-4,4-dimethyl-pentanoic acid [1-(S)-(5-fluoro-2,3-dihydro-indol-1-ylmethyl)-3-methanesulfonyl-propyl]-amide] | < 100 | +++ (+++, >1000) | +++ (+++, >1000) | + (+, >10)
5 | CC(C)(C)C[C@H](Nc1nc2ccccc2o1)C(=O)N[C@@H](COCc1ccccc1)CN1CCc2cc(F)ccc21 [Example 6, 2-(S)-(Benzooxazol-2-ylamino)-4,4-dimethyl-pentanoic acid (R)-[1-benzyloxymethyl-2-(5-fluoro-2,3-dihydro-indol-1-yl)-ethyl]-amide] | < 100 | +++ (+++, >1000) | +++ (+++, >1000) | + (+, >10)
6 | CC(C)(C)C[C@H](Nc1nc2ccccc2o1)C(=O)N[C@@H](CO)CN1CCc2cc(F)ccc21 [Example 7, 2-(S)-(Benzooxazol-2-ylamino)-4,4-dimethyl-pentanoic acid [2-(5-fluoro-2,3-dihydro-indol-1-yl)-1-(R)-hydroxymethyl-ethyl]-amide] | < 100 | +++ (+++, >1000) | +++ (+++, >1000) | + (+, >10)
7 | CC(C)(C)OC(=O)C[C@@H](CN1CCc2cc(F)ccc21)NC(=O)[C@H](CC1CCCCC1)Nc1nc2ccccc2o1 [Example 9, 3-(S)-[2-(S)-(Benzooxazol-2-ylamino)-3-cyclohexyl-propionylamino]-4-(5-fluoro-2,3-dihydro-indol-1-yl)-butyric acid tert-butyl ester] | < 100 | ++ (++, >100) | +++ (+++, >1000) | ++ (++, >100)
8 | CC(C)(C)C[C@H](Nc1nccc2ccccc12)C(=O)NCCN1CCc2cc(F)ccc21 [Example 19, 2-(S)-(Isoquinolin-1-ylamino)-4,4-dimethyl-pentanoic acid [2-(5-fluoro-2,3-dihydro-indol-1-yl)-ethyl]-amide] | < 100 | + (+, >10) | +++ (+++, >1000) | –
9 | Cc1sc(N[C@@H](CC2CCCCC2)C(=O)NCCN2CCc3cc(F)ccc32)nc1-c1ccccc1 [Example 20, (S)-3-Cyclohexyl-N-[2-(5-fluoro-2,3-dihydro-indol-1-yl)-ethyl]-2-(5-methyl-4-phenyl-thiazol-2-ylamino)-propionamide] | < 10000 | – | + (+, >10) | + (+, >10)
10 | COC(=O)c1ccc2nc(N[C@@H](CC3CCCCC3)C(=O)N[C@@H](C)CNc3ccc(F)cc3)oc2c1 [Example 24, (S,S)2-{2-Cyclohexyl-1-[2-(4-fluoro-phenylamino)-1-methyl-ethylcarbamoyl]-ethylamino}-benzooxazole-6-carboxylic acid methyl ester] | < 100 | – | – | –
11 | Cc1cc(NC[C@H](C)NC(=O)[C@H](CC2CCCCC2)Nc2nc3cccc(Cl)c3o2)no1 [Example 25, 2-(S)-(7-Chloro-benzooxazol-2-ylamino)-3-cyclohexyl-N-[1-(S)-methyl-2-(5-methyl-isoxazol-3-ylamino)-ethyl]-propionamide] | < 10000 | – | – | –
12 | O=C(O)C[C@@H](CN1CCc2cc(F)ccc21)NC(=O)[C@H](CC1CCCCC1)Nc1nc2ccc(Cl)cc2s1 [Example 29, 3-(S)-[2-(S)-(6-Chloro-benzothiazol-2-ylamino)-3-cyclohexyl-propionylamino]-4-(5-fluoro-2,3-dihydro-indol-1-yl)-butyric acid] | < 100 | – | – | –
13 | C[C@@H](CN1CCc2cc(F)ccc21)NC(=O)[C@H](CC1CCCCC1)Nc1nc2ccc(Cl)cc2s1 [Example 34, 2-(S)-(6-Chloro-benzothiazol-2-ylamino)-3-cyclohexyl-N-[2-(5-fluoro-2,3-dihydro-indol-1-yl)-1-(S)-methyl-ethyl]-propionamide] | < 100 | – | – | –
14 | C[C@@H](CNc1ccc(OC(F)(F)F)cc1)NC(=O)[C@H](CC1CCCC1)Nc1nc2cccc(Cl)c2o1 [Example 39, 2-(S)-(7-Chloro-benzooxazol-2-ylamino)-3-cyclopentyl-N-[1-(S)-methyl-2-(4-trifluoromethoxy-phenylamino)-ethyl]-propionamide] | < 100 | – | – | –
15 | C[C@@H](CNc1ccc(OC(F)(F)F)cc1)NC(=O)[C@H](CC(C)(C)C)Nc1nc2cccc(Cl)c2o1 [Example 41, 2-(S)-(7-Chloro-benzooxazol-2-ylamino)-4,4-dimethyl-pentanoic acid [1-(S)-methyl-2-(4-trifluoromethoxy-phenylamino)-ethyl]-amide] | < 100 | – | – | –
16 | C[C@@H](CNc1ccc(OC(F)(F)F)cc1)NC(=O)[C@H](CC1CC1)Nc1nc2cccc(Cl)c2o1 [Example 43, 2-(S)-(7-Chloro-benzooxazol-2-ylamino)-3-cyclopropyl-N-[1-(S)-methyl-2-(4-trifluoromethoxy-phenylamino)-ethyl]-propionamide] | < 100 | – | – | –
